One may read the IC50 as the midpoint of a concentration-inhibition curve. One may read the EC50 as the midpoint of the concentration-response curve.

Results on 19 compounds are retold here after US20250368633A1, “AZEPINE FUSED RING COMPOUND AS RIPK1 INHIBITOR AND USE THEREOF” (ARTIVILA BIOPHARMA, priority 2022, published 2025).

Test [1] concerns the target T1, RIPK1 kinase (Homo sapiens, UniProt Q13546).
T1 construct: purchased Promega VA7593
T1 sequence (Q13546 1-671): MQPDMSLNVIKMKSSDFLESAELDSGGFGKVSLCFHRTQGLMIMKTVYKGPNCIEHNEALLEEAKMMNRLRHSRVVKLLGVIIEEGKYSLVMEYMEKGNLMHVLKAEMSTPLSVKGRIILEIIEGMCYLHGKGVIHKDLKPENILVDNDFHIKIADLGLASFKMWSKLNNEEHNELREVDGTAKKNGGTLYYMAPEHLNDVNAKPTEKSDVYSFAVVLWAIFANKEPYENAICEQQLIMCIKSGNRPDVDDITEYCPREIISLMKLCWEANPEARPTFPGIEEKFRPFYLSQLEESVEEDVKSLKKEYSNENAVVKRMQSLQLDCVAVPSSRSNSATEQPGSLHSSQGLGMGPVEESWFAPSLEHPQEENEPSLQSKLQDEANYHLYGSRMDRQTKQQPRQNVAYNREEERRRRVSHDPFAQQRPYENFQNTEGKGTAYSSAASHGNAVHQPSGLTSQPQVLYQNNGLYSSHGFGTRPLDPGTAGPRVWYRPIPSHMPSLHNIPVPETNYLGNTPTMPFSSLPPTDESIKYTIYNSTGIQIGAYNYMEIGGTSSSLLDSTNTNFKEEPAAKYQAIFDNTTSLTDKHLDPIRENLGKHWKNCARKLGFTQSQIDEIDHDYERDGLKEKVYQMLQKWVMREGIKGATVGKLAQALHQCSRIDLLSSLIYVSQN
Kind of test: In vitro RIPK1 kinase activity IC50 assay (ADP-Glo). It counts as biochemical. As to conditions: ATP 10 μM; MBP substrate 100 μg/mL; 8 concentration points; read-out: IC50 range of compounds for RIPK1 kinase activity. The method, then: RIPK1 kinase activity was assayed using the ADP-Glo assay and RIPK1 kinase reaction system (Promega, catalog number: VA7593). The RIPK1 kinase activity assay was performed according to the Promega kit manual.
The experimental method was briefly described as below. The concentration of RIPK1 kinase in the RIPK1 kinase reaction system was determined by kinase titration and S/B10. The compound was diluted with 1× kinase buffer D (1% DMSO), 1 μL of 1 mM compound DMSO stock solution was added to 19 μL 1× kinase buffer D, and the compound was serially diluted with 1× kinase buffer D at a ratio of 1:5, for a total of 8 concentration points, and a control with the same DMSO volume was set. RIPK1 kinase was diluted with 1× kinase buffer D. 2.5×ATP/substrate was diluted with 1× kinase buffer D. The final concentration of ATP in the kinase reaction system was 10 μM. The final concentration of MBP substrate was 100 μg/mL. 1 μL of diluted compound and 2 μL of diluted RIPK1 kinase were mixed, incubated at room temperature for 15 minutes, 2 μL of 2.5×ATP/substrate was added, mixed, and incubated at room temperature for 1 hour. 5 μL ADP-Glo reagent was added to each well and incubated at room temperature for 1 hour. 10 μL ADP detection reagent was added to each well and incubated at room temperature for another 0.5-1 hour. The chemiluminescent signal was read with a microplate reader and the kinase activity inhibition rate was calculated. IC50 was obtained by fitting the nonlinear regression curve log [inhibitor] vs. response-variable slope (four parameters) in GraphPad Prism.
In general terms: ADP-Glo first removes unused ATP, then detects ADP through luciferase.

Test [2] relates to U937 cells. Kind of test: EC50 of necroptosis inhibition in U937 cells (TSZ-induced, CellTiter-Glo). The format is cell-based. The note with it: Homo sapiens, U-937; TSZ (hTNF-α, SM-164, Z-VAD-FMK) 20 hours; 10 concentration points; read-out: EC50 intervals of necroptosis inhibition in U937 cells. The method in brief:
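Luminescent ATP readout (CellTiter-Glo) after 20 h gave viability of TSZ-challenged U937 cells; compounds were added 15 min ahead of TNF-α/SM-164/Z-VAD-FMK. EC50 derived by variable-slope nonlinear regression of inhibition relative to no-TSZ and TSZ-alone controls.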
On the technique in general: In ATP-based viability assays light output follows the ATP content of the culture.

Structures are written as SMILES.

On to `CC(Cc1ccccc1)NC(=O)C(=O)N[C@H]1COc2ccc(C#CCCO)cc2N(C)C1=O` (mixture of isomers) [Example 37, N^1-((S)-7-(4-hydroxybut-1-yn-1-yl)-5-methyl-4-oxo-2,3,4,5-tetrahydrobenzo[b][1,4]oxazepin-3-yl)-N^2-(1-phenylpropan-2-yl)oxalamide], for which the IC50 in test [1] was under 100 nM. In addition, the concentration for a half-maximal effect (EC50) in test [2] lay in the range of 100 to 500 nM.
For `CC(NC(=O)C(=O)N[C@H]1COc2ccc(C#CCCO)cc2N(C)C1=O)c1ccccc1` (mixture of isomers) [Example 41, N^1-((S)-7-(4-hydroxybut-1-yn-1-yl)-5-methyl-4-oxo-2,3,4,5-tetrahydrobenzo[b][1,4]oxazepin-3-yl)-N^2-(1-phenylethyl)oxalamide], in that order: under 100 nM and under 100 nM.
`CN1CCC(CC#Cc2ccc3c(c2)N(C)C(=O)[C@@H](NC(=O)C(=O)NCCc2ccccc2)CO3)C1=O` (mixture of isomers) [Example 82, N^1-((3S)-5-methyl-7-(3-(1-methyl-2-oxopyrrolidin-3-yl)prop-1-yn-1-yl)-4-oxo-2,3,4,5-tetrahydrobenzo[b][1,4]oxazepin-3-yl)-N^2-phenethyloxalamide]: in test [1], the IC50 was under 100 nM. Further, the concentration for a half-maximal effect (EC50) in test [2] is under 100 nM.
Take `CN1C(=O)[C@@H](NC(=O)C(=O)NCCc2cccc(F)c2)COc2ccc(C#CCN3CCC(O)C3)cc21` (mixture of isomers) [Example 113, N^1-(3-fluorophenethyl)-N^2-((3S)-7-(3-(3-hydroxypyrrolidin-1-yl)prop-1-yn-1-yl)-5-methyl-4-oxo-2,3,4,5-tetrahydrobenzo[b][1,4]oxazepin-3-yl)oxalamide]: the half-inhibitory concentration (IC50) in test [1] was under 100 nM. The concentration giving a half-maximal response (EC50) in test [2] was under 100 nM.
Take `C[C@@H](NC(=O)C(=O)N[C@H]1COc2ccc(C#CCN3CCC(O)C3)cc2N(C)C1=O)c1ccccc1` (mixture of isomers) [Example 126, N^1-((3S)-7-(3-(3-hydroxypyrrolidin-1-yl)prop-1-yn-1-yl)-5-methyl-4-oxo-2,3,4,5-tetrahydrobenzo[b][1,4]oxazepin-3-yl)-N^2-((R)-1-phenylethyl)oxalamide]: in test [1], the half-inhibitory concentration (IC50) was under 100 nM. For the same compound, the EC50 in test [2] was under 100 nM.
On to `CC(CNC(=O)C(=O)N[C@H]1COc2ccc(C#CCCO)cc2N(C)C1=O)c1ccccc1` (mixture of isomers) [Example 154, N^1-((S)-7-(4-hydroxybut-1-yn-1-yl)-5-methyl-4-oxo-2,3,4,5-tetrahydrobenzo[b][1,4]oxazepin-3-yl)-N^2-(2-phenylpropyl)oxalamide], for which the IC50 in test [1] was under 100 nM. The EC50 in test [2] was under 100 nM.
On to `CN1C(=O)[C@@H](NC(=O)C(=O)NCCc2ccccc2)COc2ccc(C#Cc3cccnc3)cc21` [Example 13, (S)—N^1-(5-methyl-4-oxo-7-(pyridin-3-ylethynyl)-2,3,4,5-tetrahydrobenzo[b][1,4]oxazepin-3-yl)-N^2-phenethyloxalamide], for which the IC50 in test [1] was under 100 nM. For the same compound, in test [2], the 50% effective concentration (EC50) is under 100 nM.
Take `CN1C(=O)[C@@H](NC(=O)C(=O)NCCc2ccccc2)COc2ccc(C#Cc3ccsc3)cc21` [Example 17, (S)—N^1-(5-methyl-4-oxo-7-(thiophen-3-ylethynyl)-2,3,4,5-tetrahydrobenzo[b][1,4]oxazepin-3-yl)-N^2-phenethyloxalamide]: the IC50 in test [1] was under 100 nM. Besides, the half-maximal effective concentration (EC50) in test [2] is under 100 nM.
In the case of `CN1C(=O)[C@@H](NC(=O)C(=O)NCCc2ccccc2)COc2ccc(C#C[Si](C)(C)C)cc21` [Example 18, (S)—N^1-(5-methyl-4-oxo-7-((trimethylsilyl)ethynyl)-2,3,4,5-tetrahydrobenzo[b][1,4]oxazepin-3-yl)-N^2-phenethyloxalamide], in test [1], the IC50 was under 100 nM. Moreover, the EC50 in test [2] is under 100 nM.
Take `CC#Cc1ccc2c(c1)N(C)C(=O)[C@@H](NC(=O)C(=O)NCCc1ccccc1)CO2` [Example 19, (S)—N^1-(5-methyl-4-oxo-7-(prop-1-yn-1-yl)-2,3,4,5-tetrahydrobenzo[b][1,4]oxazepin-3-yl)-N^2-phenethyloxalamide]: the half-maximal inhibitory concentration (IC50) in test [1] was under 100 nM. In addition, in test [2], the EC50 was under 100 nM.
On to `CN1C(=O)[C@@H](NC(=O)C(=O)NCCc2ccccc2)COc2ccc(C#CC3CCOCC3)cc21` [Example 21, (S)—N^1-(5-methyl-4-oxo-7-((tetrahydro-2H-pyran-4-yl)ethynyl)-2,3,4,5-tetrahydrobenzo[b][1,4]oxazepin-3-yl)-N^2-phenethyloxalamide], for which the IC50 in test [1] is under 100 nM. Moreover, the EC50 in test [2] is under 100 nM.
Take `CN1C(=O)[C@@H](NC(=O)C(=O)NCCc2ccccc2)COc2ccc(C#Cc3cnn(C)c3)cc21` [Example 22, (S)—N^1-(5-methyl-7-((1-methyl-1H-pyrazol-4-yl)ethynyl)-4-oxo-2,3,4,5-tetrahydrobenzo[b][1,4]oxazepin-3-yl)-N^2-phenethyloxalamide]: the IC50 in test [1] is under 100 nM. For the same compound, the concentration for a half-maximal effect (EC50) in test [2] is under 100 nM.
`CN1C(=O)[C@@H](NC(=O)C(=O)NCCc2ccccc2)COc2ccc(C#CC3CCCNC3)cc21` (stereo partly drawn) [Example 24, N^1-((3S)-5-methyl-4-oxo-7-(piperidin-3-ylethynyl)-2,3,4,5-tetrahydrobenzo[b][1,4]oxazepin-3-yl)-N^2-phenethyloxalamide]: in test [1], the 50% inhibitory concentration (IC50) is under 100 nM. In test [2], the half-maximal effective concentration (EC50) was under 100 nM.
For the compound `CN1C(=O)[C@@H](NC(=O)C(=O)NCCc2ccccc2)COc2ccc(C#Cc3cnc4cccnn34)cc21` [Example 25, (S)—N^1-(7-(imidazo[1,2-b]pyridazin-3-ylethynyl)-5-methyl-4-oxo-2,3,4,5-tetrahydrobenzo[b][1,4]oxazepin-3-yl)-N^2-phenethyloxalamide], the IC50 in test [1] was under 100 nM. Further, the concentration giving a half-maximal response (EC50) in test [2] was under 100 nM.
Take `CN1C(=O)[C@@H](NC(=O)C(=O)NCCc2ccccc2)COc2ccc(C#CC(C)(C)O)cc21` [Example 29, (S)—N^1-(7-(3-hydroxy-3-methylbut-1-yn-1-yl)-5-methyl-4-oxo-2,3,4,5-tetrahydrobenzo[b][1,4]oxazepin-3-yl)-N^2-phenethyloxalamide]: the IC50 in test [1] was under 100 nM. Besides, in test [2], the 50% effective concentration (EC50) was under 100 nM.
For the compound `CN1C(=O)[C@@H](NC(=O)C(=O)NCCc2ccccc2)COc2ccc(C#CCCO)cc21` [Example 31, (S)—N^1-(7-(4-hydroxybut-1-yn-1-yl)-5-methyl-4-oxo-2,3,4,5-tetrahydrobenzo[b][1,4]oxazepin-3-yl)-N^2-phenethyloxalamide], in test [1], the IC50 is under 100 nM. Also, in test [2], the concentration giving a half-maximal response (EC50) was under 100 nM.
`CN1C(=O)[C@@H](NC(=O)C(=O)NCc2ccccc2)COc2ccc(C#CCCO)cc21` [Example 32, (S)—N^1-benzyl-N^2-(7-(4-hydroxybut-1-yn-1-yl)-5-methyl-4-oxo-2,3,4,5-tetrahydrobenzo[b][1,4]oxazepin-3-yl)oxalamide]: the 50% inhibitory concentration (IC50) in test [1] was under 100 nM. The EC50 in test [2] is under 100 nM.
With `CN1C(=O)[C@@H](NC(=O)C(=O)NCCc2ccccc2F)COc2ccc(C#CCCO)cc21` [Example 33, (S)—N^1-(2-fluorophenethyl)-N^2-(7-(4-hydroxybut-1-yn-1-yl)-5-methyl-4-oxo-2,3,4,5-tetrahydrobenzo[b][1,4]oxazepin-3-yl)oxalamide], in test [1], the IC50 is under 100 nM. Moreover, in test [2], the EC50 is under 100 nM.
`CN1C(=O)[C@@H](NC(=O)C(=O)NCCc2cccc(F)c2)COc2ccc(C#CCCO)cc21` [Example 34, (S)—N^1-(3-fluorophenethyl)-N^2-(7-(4-hydroxybut-1-yn-1-yl)-5-methyl-4-oxo-2,3,4,5-tetrahydrobenzo[b][1,4]oxazepin-3-yl)oxalamide]: in test [1], the IC50 is under 100 nM. Moreover, the EC50 in test [2] was under 100 nM.
